From paper PMC3735939, “The low levels of eicosapentaenoic acid in rat brain phospholipids are maintained via multiple redundant mechanisms” (Journal of Lipid Research, 2013)
Values joined by “and” are separate entries in the source; they are usually repeats but may differ in a detail not shown here. Equal values may be shown once.

How the values were obtained:
[1] = In vivo kinetics of FA incorporation and turnover in brain phospholipids (intravenous radiotracer infusion, kinetic model); set-up: species or system rat
Experimental: Twenty-four hours postsurgery, a second catheter (iv catheter 24 gauge/0.75 inch, Angiocath™; Becton Dickinson) was implanted into the tail vein where rats received either vehicle or 10 mg/kg of MEP. […] The radiotracers were infused for 5 min via the tail vein catheter at a rate of 0.223(1 + e^−19.2t) ml/min (t is infusion time in minutes) ([37]) which achieves a steady-state plasma radioactivity within 1 min ([18], [38]). […] During the 5 min infusion, blood samples were collected from the jugular vein at approximately 0, 0.25, 0.5, 0.75, 1.5, 3, 4, and 5 min while the unanesthetized rat was mobile in the infusion box with food and water. […] After 5 min, the rats were rapidly euthanized by head-focused high-energy microwave irradiation (13.5 kW for 1.6 s; Cober Electronics Inc., Stratford, CT). The radiotracer infusions continued until rats were euthanized. The brain was excised and cut sagittally. Both hemispheres were stored at −80°C for radioactive and biochemical analyses. Plasma was isolated from whole blood via microcentrifugation at 6,200 rpm (2,000 g) for 5 min and stored at −80°C.
The model for in vivo kinetics of brain FAs in rats has been previously described ([17], [18], [21], [23], [25], [37], [41]).
Because the infusion is 5 min, contributions of FA from de novo synthesis and esterified plasma FA are negligible ([18], [20], [23], [41]); thus only contributions from plasma unesterified FAs and acyl-CoA pools were considered in the calculation of λpalmitate, DHA, or EPA .

[2] = Radioactivity in brain lipid fractions after 5 min intravenous 14C-tracer infusion (TLC, LSC); type: in vivo, rat; conditions: for total radioactivity in brain total phospholipids: not adjusted for percent composition of 14C-EPA; for esterification of radiolabeled FA into brain total phospholipids: 14C-EPA-infused rats
Experimental: (§1) Twenty-four hours postsurgery, a second catheter (iv catheter 24 gauge/0.75 inch, Angiocath™; Becton Dickinson) was implanted into the tail vein where rats received either vehicle or 10 mg/kg of MEP. Ten minutes post injection of vehicle or MEP, the tail vein catheter was connected to a syringe containing radiolabeled ^14C-palmitate (n = 8), ^14C-DHA (n = 6), or ^14C-EPA (n = 7) attached to a computer-controlled variable speed pump (PHD 22/2000; Harvard Apparatus, Holliston, MA). […] Each rat received a dose of 76 μCi ^14C-palmitate, 76 μCi ^14C-DHA, or 78 μCi ^14C-EPA. […] The radiotracer infusions continued until rats were euthanized. The brain was excised and cut sagittally. Both hemispheres were stored at −80°C for radioactive and biochemical analyses. Plasma was isolated from whole blood via microcentrifugation at 6,200 rpm (2,000 g) for 5 min and stored at −80°C. Total lipids from one brain hemisphere and from plasma were extracted by the method of Folch, Lees, and Sloane Stanley ([39]). Isolation of various neutral lipid and phospholipid classes from the total lipid extract was previously described by Chen, Liu, and Bazinet ([6]). FA methyl esters and radioactive acyl-CoA analysis were previously described by Chen, Liu, and Bazinet ([6]).

[3] = Identification of radiolabeled FAs in brain phospholipids by HPLC and LSC after 14C-EPA infusion; type: in vivo, rat; conditions: for percent of total radiolabeled FAs: brain total phospholipids;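 on radiolabeled FA composition: percent of radiolabeled FAs within each phospholipid class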
Experimental: as §1

[4] = test system: mitochondrial FA β-oxidation; assay: Radioactivity in brain aqueous fraction (marker of β-oxidation) after 5 min intravenous 14C-tracer infusion; type: in vivo, rat; conditions: vehicle injection; 5 min iv infusion of tracer
Experimental: as §1, with “([6]).” for “([6]). FA methyl esters and radioactive acyl-CoA analysis were previously described by Chen, Liu, and Bazinet ([6]).”

[5] = cited from earlier work

Compound: CC/C=C\C/C=C\C/C=C\C/C=C\C/C=C\CCCC(=O)O [EPA, eicosapentaenoic acid]
- FFA rate of turnover ([1]; ChoGpl, MEP): 28 ± 4.5 %/day
- JFA net incorporation rate from brain acyl-CoA ([1]; ChoGpl, MEP): 16 ± 2.3 nmol/g/day
- Jin net incorporation rate from plasma unesterified FA ([1]; ChoGpl, MEP): 3.7 ± 0.31^! nmol/g/day
- FFA rate of turnover ([1]; ChoGpl, Vehicle): 46 ± 6.9 %/day
- JFA net incorporation rate from brain acyl-CoA ([1]; ChoGpl, Vehicle): 23 ± 3.3 nmol/g/day
- Jin net incorporation rate from plasma unesterified FA ([1]; ChoGpl, Vehicle): 2.8 ± 0.55 nmol/g/day
- FFA rate of turnover ([1]; EtnGpl, MEP): 9.5 ± 3.3 %/day
- JFA net incorporation rate from brain acyl-CoA ([1]; EtnGpl, MEP): 5.4 ± 1.4 nmol/g/day
- Jin net incorporation rate from plasma unesterified FA ([1]; EtnGpl, MEP): 1.2 ± 0.17 nmol/g/day
- FFA rate of turnover ([1]; EtnGpl, Vehicle): 8.4 ± 0.81 %/day
- JFA net incorporation rate from brain acyl-CoA ([1]; EtnGpl, Vehicle): 6.4 ± 1.3 nmol/g/day
- Jin net incorporation rate from plasma unesterified FA ([1]; EtnGpl, Vehicle): 0.78 ± 0.19 nmol/g/day
- λ dilution factor ([1]; MEP): 0.24 ± 0.022
- FFA rate of turnover ([1]; PtdIns, MEP): 17 ± 6.6 %/day
- JFA net incorporation rate from brain acyl-CoA ([1]; PtdIns, MEP): 3.0 ± 1.4 nmol/g/day
- Jin net incorporation rate from plasma unesterified FA ([1]; PtdIns, MEP): 0.73 ± 0.41 nmol/g/day
- FFA rate of turnover ([1]; PtdIns, Vehicle): 24 ± 1.7 %/day
- JFA net incorporation rate from brain acyl-CoA ([1]; PtdIns, Vehicle): 4.5 ± 0.2 nmol/g/day
- Jin net incorporation rate from plasma unesterified FA ([1]; PtdIns, Vehicle): 0.52 ± 0.087 nmol/g/day
- FFA rate of turnover ([1]; PtdSer, MEP): 3.1 ± 0.43 %/day
- JFA net incorporation rate from brain acyl-CoA ([1]; PtdSer, MEP): 1.2 ± 0.13 nmol/g/day
- Jin net incorporation rate from plasma unesterified FA ([1]; PtdSer, MEP): 0.29 ± 0.057 nmol/g/day
- FFA rate of turnover ([1]; PtdSer, Vehicle): 3.1 ± 0.56 %/day
- JFA net incorporation rate from brain acyl-CoA ([1]; PtdSer, Vehicle): 1.4 ± 0.36 nmol/g/day
- Jin net incorporation rate from plasma unesterified FA ([1]; PtdSer, Vehicle): 0.17 ± 0.055 nmol/g/day
- FFA rate of turnover ([1]; Total PL, MEP): 17 ± 2.3 %/day
- JFA net incorporation rate from brain acyl-CoA ([1]; Total PL, MEP): 31 ± 4.8 nmol/g/day
- Jin net incorporation rate from plasma unesterified FA ([1]; Total PL, MEP): 7.3 ± 0.7^! nmol/g/day
- FFA rate of turnover ([1]; Total PL, Vehicle): 21 %/day and 21 ± 2.9 %/day
- JFA net incorporation rate from brain acyl-CoA ([1]; Total PL, Vehicle): 47 ± 5.7 nmol/g/day
- Jin net incorporation rate from plasma unesterified FA ([1]; Total PL, Vehicle): 5.7 nmol/g/day and 5.7 ± 1.1 nmol/g/day
- Jin as percent of the Jout ([1]; rat, in vivo): 36%
- recycling into brain phospholipids, fold lower than DHA ([1]; rat, in vivo): 154 fold
- λ dilution factor ([1]; vehicle): 0.12 ± 0.014 and 0.12 ± 0.01
- total radioactivity in brain total phospholipids ([2]; MEP): 22 ± 0.6 nCi/g brain
- total radioactivity in brain total phospholipids ([2]; vehicle): 17 ± 0.9 nCi/g brain
- radiolabeled FA composition ([3]; ChoGpl, MEP-treated rats): 66%
- radiolabeled FA composition ([3]; ChoGpl, vehicle-treated rats): 65%
- radiolabeled FA composition ([3]; EtnGpl, MEP-treated rats): 25%
- radiolabeled FA composition ([3]; EtnGpl, vehicle-treated rats): 24%
- radiolabeled FA composition ([3]; PtdIns, MEP-treated rats): 65%
- radiolabeled FA composition ([3]; PtdIns, vehicle-treated rats): 66%
- radiolabeled FA composition ([3]; PtdSer, MEP-treated rats): 54%
- radiolabeled FA composition ([3]; PtdSer, vehicle-treated rats): 44%
- percent of total radiolabeled FAs ([3]; MEP-treated rats): 56%
- percent of total radiolabeled FAs ([3]; vehicle-treated rats): 62%
- radioactivity of brain aqueous fraction [4]: 21 nCi/g brain
- Jout net rate of loss from brain phospholipids [5]: 16 nmol/g/day
- loss t1/2 from brain phospholipids [5]: 120 h
- rate of loss from brain phospholipids [5]: 14 % per day

Compound: CCCCCCCCCCCCCCCC(=O)O [Palmitate, [1-14C]palmitate]
- FFA rate of turnover ([1]; ChoGpl, MEP): 53 ± 13 %/day
- JFA net incorporation rate from brain acyl-CoA ([1]; ChoGpl, MEP): 12,720 ± 3,120 nmol/g/day
- FFA rate of turnover ([1]; ChoGpl, Vehicle): 84 ± 33 %/day
- JFA net incorporation rate from brain acyl-CoA ([1]; ChoGpl, Vehicle): 20,713 ± 9,692 nmol/g/day
- FFA rate of turnover ([1]; EtnGpl, MEP): 110 ± 37 %/day
- JFA net incorporation rate from brain acyl-CoA ([1]; EtnGpl, MEP): 3,062 ± 1,011 nmol/g/day
- FFA rate of turnover ([1]; EtnGpl, Vehicle): 161 ± 66 %/day
- JFA net incorporation rate from brain acyl-CoA ([1]; EtnGpl, Vehicle): 4,926 ± 2,623 nmol/g/day
- Jin into diacylglycerol ([1]; MEP): 238 ± 34 nmol/g/day
- Jin into triacylglycerol ([1]; MEP): 276 ± 19 nmol/g/day
- FFA rate of turnover ([1]; PtdIns, MEP): 311 ± 135 %/day
- JFA net incorporation rate from brain acyl-CoA ([1]; PtdIns, MEP): 2,443 ± 1,153 nmol/g/day
- FFA rate of turnover ([1]; PtdIns, Vehicle): 292 ± 80 %/day
- JFA net incorporation rate from brain acyl-CoA ([1]; PtdIns, Vehicle): 2,679 ± 1,655 nmol/g/day
- FFA rate of turnover ([1]; PtdSer, MEP): 261 ± 194 %/day
- JFA net incorporation rate from brain acyl-CoA ([1]; PtdSer, MEP): 849 ± 562 nmol/g/day
- FFA rate of turnover ([1]; PtdSer, Vehicle): 356 ± 259 %/day
- JFA net incorporation rate from brain acyl-CoA ([1]; PtdSer, Vehicle): 1,253 ± 792 nmol/g/day
- FFA rate of turnover ([1]; Total PL, MEP): 80 ± 30 %/day
- JFA net incorporation rate from brain acyl-CoA ([1]; Total PL, MEP): 19,285 ± 6,630 nmol/g/day
- FFA rate of turnover ([1]; Total PL, Vehicle): 127 ± 57 %/day
- JFA net incorporation rate from brain acyl-CoA ([1]; Total PL, Vehicle): 32,728 ± 17,692 nmol/g/day
- Jin into diacylglycerol ([1]; vehicle): 106 ± 19 nmol/g/day
- Jin into triacylglycerol ([1]; vehicle): 140 ± 23 nmol/g/day
- radiolabeled FA composition ([3]; ChoGpl, MEP-treated rats): 3%
- radiolabeled FA composition ([3]; ChoGpl, vehicle-treated rats): 6%
- percent of total radiolabeled FAs ([3]; MEP-treated rats): 2%
- percent of total radiolabeled FAs ([3]; vehicle-treated rats): 4%
- radioactivity of brain aqueous fraction [4]: 17 nCi/g brain
- Jout net rate of loss from brain phospholipids [5]: 469 nmol/g/day
- rate of loss from brain phospholipids [5]: 2 % per day

Compound: CC/C=C\C/C=C\C/C=C\C/C=C\C/C=C\CCCCCC(=O)O [n-3 DPA, n-3 docosapentaenoic acid]
- esterification of radiolabeled FA into brain total phospholipids ([2]; MEP): 8.3 ± 0.2 nCi/g brain
- esterification of radiolabeled FA into brain total phospholipids ([2]; vehicle): 4.1 ± 0.2 nCi/g brain
- radiolabeled FA composition ([3]; ChoGpl, MEP-treated rats): 26%
- radiolabeled FA composition ([3]; ChoGpl, vehicle-treated rats): 18%
- radiolabeled FA composition ([3]; EtnGpl, MEP-treated rats): 61%
- radiolabeled FA composition ([3]; EtnGpl, vehicle-treated rats): 47%
- percent of total radiolabeled FAs ([3]; MEP-treated rats): 38%
- percent of total radiolabeled FAs ([3]; vehicle-treated rats): 24%
